*1 amine or outer side, *2 acyl side, *3 side chain or, on linkers, in order; H or OH if unused. Where a SMILES comes first, the peptide text is derived from it. Bridges are numbered along the chain shown (N, C = ends). [ ]: non-standard residue; d: D form. The star is where a group is joined. 2Nal = N[C@@H](Cc1ccc2ccccc2c1)C(=O)O; AEF = NCCOc1ccc(C[C@H](N)C(=O)O)cc1; X1 = O=C(Cc1ccc(CN[*:1])cc1)[*:2]; 3Pal = N[C@@H](Cc1cccnc1)C(=O)O; αMeL = CC(C)C[C@](C)(N)C(=O)O; CH2COCH2 = O=C(C[*:1])C[*:2]; Pyrrolidide = C1CCN(*)C1; Dab = NCC[C@H](N)C(=O)O
Legend:
human IL-23R = biological target: T1, human IL-23R (Homo sapiens, UniProt Q5VWK5); experiment: Binding assay: displacement of fluorophore (TAMRA)-labelled reference compound from human IL-23R (BRET, Nluc-IL23R fusion protein membranes); conditions: for Emax: read-out: % displacement (hIL-23R binding)
T1 construct: Nanoluc luciferase (Nluc); secretion signal encoded by the plasmid (not specified); expressed in transfected cells; crude membranes used in the assay
T1 sequence (Q5VWK5 22-629): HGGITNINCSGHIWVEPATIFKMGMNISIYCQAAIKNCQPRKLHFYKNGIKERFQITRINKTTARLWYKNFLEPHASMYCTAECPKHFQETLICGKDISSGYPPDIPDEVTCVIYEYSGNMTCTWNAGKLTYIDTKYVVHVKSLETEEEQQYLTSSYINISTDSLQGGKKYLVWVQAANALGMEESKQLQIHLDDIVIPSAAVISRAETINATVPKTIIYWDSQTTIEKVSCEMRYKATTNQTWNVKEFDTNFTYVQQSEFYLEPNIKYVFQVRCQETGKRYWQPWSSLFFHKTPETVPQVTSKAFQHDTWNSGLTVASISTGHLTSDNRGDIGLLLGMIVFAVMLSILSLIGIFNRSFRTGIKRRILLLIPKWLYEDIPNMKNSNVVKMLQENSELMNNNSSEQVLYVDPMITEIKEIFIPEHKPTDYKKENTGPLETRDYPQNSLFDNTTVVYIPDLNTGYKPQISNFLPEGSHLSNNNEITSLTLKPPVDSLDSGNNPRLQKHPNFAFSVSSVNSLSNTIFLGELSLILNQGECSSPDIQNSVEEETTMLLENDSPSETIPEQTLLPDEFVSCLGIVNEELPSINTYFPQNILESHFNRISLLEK

[1] = test system: IL-23 mediated STAT3 signalling (DB cells); experiment: Functional inhibition of IL-23 mediated STAT3 signalling (phospho-STAT3 Tyr705) in DB cells; assay type: cell-based, human; conditions: for IC50: Table 3-2, EC80 of hIL-23, read-out: hIL-23 (pSTAT3) antagonist IC50; for hIL-23 (pSTAT3) antagonist % inhibition: Table 3-2, maximal inhibitory response, EC80 of hIL-23
Source text: Upon binding of IL-23, the IL-23R forms a heterodimer signalling complex together with IL-12R β1, which through the JAK2/STAT3 pathway promotes phosphorylation of STAT3 to form phospho-STAT3.
For compounds tested in this assay, the response was normalized relative to control values to calculate the IC50 and maximal inhibitory response from a concentration response curve of the compound in presence of a fixed concentration of human IL-23.
The assay procedure was as follows. […] Following preincubation of the DB cells with inhibitor for 15 min in a cell incubator (37° C., 5% CO2), 20 μL of the prepared 3× the EC80 of hIL-23 solution was added to each well and incubated for 90 min in a cell incubator (37° C., 5% CO2). For some wells buffer only or IL-23 only corresponding to the EC80 was added to obtain readouts needed for normalization. To terminate the assay, the plate was spun at 1000 G for 5 min to pellet cells, the supernatant removed using an 8-channel manual pipette, and then added 50 μL/well Complete Lysis Buffer from the MSD STAT3 kit (Cat #K150SVD, Mesoscale) to the cell pellet. To completely lyse cells to release phospho-STAT3 for detection, the plate was shaken for 10 min at room temperature (500 rpm) sealed with aluminium foil and placed at −80° C. for a minimum of 15 min. Detection of the phospho-STAT3 level in the cell lysate from the individual wells was determined using the MSD STAT3 kit (Cat #K150SVD, Mesoscale) and read on a Meso QuickPlex SQ 120 plate reader (Mesoscale).
For data analysis raw data counts from the Meso QuickPlex SQ 120 plate reader were normalized relative to the response by the EC80 of hIL-23 alone (no compound added) and the buffer level.

Row | Compound | IC50 (human IL-23R) [nM] | Emax (human IL-23R) [%] | IC50 [1] [nM] | hIL-23 (pSTAT3) antagonist % inhibition [1] [%]
1 | CC(C)C[C@]1(C)NC(=O)[C@H](Cc2ccc3ccccc3c2)NC(=O)[C@H](Cc2ccc(OCCN)cc2)NC(=O)[C@@H]2CCNC(=O)CC[C@H](NC(=O)[C@H](CO)NC(=O)Cc3ccc(cc3)CNC(=O)CC[C@@H](C(=O)N[C@@H](CCN)C(N)=O)NC1=O)C(=O)N[C@@H](Cc1c[nH]c3ccccc13)C(=O)N[C@@H](CCC(=O)N1CCCC1)C(=O)N2 [Ref 146, [4-Aminomethyl-phenylacetyl](1c)*SE(2c)W[Q(pyrrolidin)][Dab](2c)[Y(2-aminoethoxy)][2-Nal][2-Me-Leu]E(1c)[Dab]-[NH2], reference compound] ([X1]SEWE(Pyrrolidide)[Dab][AEF][2Nal][αMeL]E[Dab]-NH2; lactam 3-6, N-10) | 1.2 | 105 | 42 | 98
2 | CNC(=O)[C@H](Cc1cncnc1)NC(=O)[C@H](CCN)NC(=O)[C@@H]1CCC(=O)NCc2ccc(cc2)CC(=O)N[C@@H](CO)C(=O)N[C@H]2CCC(=O)NCC[C@H](NC(=O)[C@H](CCC(N)=O)NC(=O)[C@H](Cc3c[nH]c4ccccc34)NC2=O)C(=O)N[C@@H](Cc2ccc(OCCN)cc2)C(=O)N[C@@H](Cc2ccc3ccccc3c2)C(=O)N[C@@](C)(CC(C)C)C(=O)N1 [Compound 19, [4-Aminomethyl-phenylacetyl](1c)*SE(2c)WQ[Dab](2c)[Y(2-aminoethoxy)][2-Nal][2-Me-Leu]E(1c)[Dab][3-(3,5-Pyrimidyl)-Ala]-[NHMe]] |  | 103 | 0.16 | 100
3 | CNC(=O)[C@H](Cc1cccnc1)NC(=O)[C@H](CCN)NC(=O)[C@@H]1CCC(=O)NCc2ccc(cc2)CC(=O)N[C@@H](CO)C(=O)N[C@H]2CCC(=O)NCC[C@H](NC(=O)[C@H](C)NC(=O)[C@H](Cc3c[nH]c4ccccc34)NC2=O)C(=O)N[C@@H](Cc2ccc(OCCN)cc2)C(=O)N[C@@H](Cc2ccc3ccccc3c2)C(=O)N[C@@](C)(CC(C)C)C(=O)N1 [Compound 22, [4-Aminomethyl-phenylacetyl](1c)*SE(2c)WA[Dab](2c)[Y(2-aminoethoxy)][2-Nal][2-Me-Leu]E(1c)[Dab][3-(3-Pyridyl)-Ala]-[NHMe]] ([X1]SEWA[Dab][AEF][2Nal][αMeL]E[Dab][3Pal]-NHMe; lactam 3-6, N-10) | 0.035 |  |  | 101
4 | CC(C)C[C@]1(C)NC(=O)[C@H](Cc2ccc3ccccc3c2)NC(=O)[C@H](Cc2ccc(OCCN)cc2)NC(=O)[C@@H]2CSCC(=O)CSC[C@H](NC(=O)[C@H](CO)NC(=O)Cc3ccc(cc3)CNC(=O)CC[C@@H](C(=O)N[C@@H](CCCNC(=N)N)C(N)=O)NC1=O)C(=O)N[C@@H](Cc1c[nH]c3ccccc13)C(=O)N[C@@H](CCC(N)=O)C(=O)N2 [Ref 52, [4-Aminomethyl-phenylacetyl](1c)*SC(2a)WQC(2a)[Y(2-aminoethoxy)][2-Nal][2-Me-Leu]E(1c)R-[NH2], reference compound] ([X1]SCWQC[AEF][2Nal][αMeL]ER-NH2; linker 3-6 via CH2COCH2; lactam N-10) |  | 100 | 7.8 | 103
5 | CC(C)C[C@]1(C)NC(=O)[C@H](Cc2ccc3ccccc3c2)NC(=O)[C@H](Cc2ccc(OCCN)cc2)NC(=O)[C@@H]2CCNC(=O)CC[C@H](NC(=O)[C@H](CO)NC(=O)Cc3ccc(cc3)CNC(=O)CC[C@@H](C(=O)NCC[C@H](N)C(=O)N[C@@](C)(Cc3cccnc3)C(N)=O)NC1=O)C(=O)N[C@@H](Cc1c[nH]c3ccccc13)C(=O)N[C@@H](CCC(N)=O)C(=O)N2 [Compound 15, [4-Aminomethyl-phenylacetyl](1c)*SE(2c)WQ[Dab](2c)[Y(2-aminoethoxy)][2-Nal][2-Me-Leu]E(1c)[Iso-Dab][2-Me-3-(3-Pyridyl)-Ala]-[NH2]] |  | 96 | 12 | 97
